Measured values taken from PMC13600255 (Journal of the American Chemical Society, 2025).
“Also recorded” adds a separate entry of the source. Read-outs that look alike come from different tables or passages of the source.

Columns and labels:
mouse VMAT2 (mVMAT2) = mouse VMAT2 (mVMAT2) (Mus musculus, UniProt Q8BRU6); experiment: FFN200 two-photon imaging of VMAT2 function in acute mouse brain slices; type: cell-based; details: 2 μM for 30 minutes, FFN200 10 μM, dorsal striatum
VMAT2 = VMAT2 (Rattus norvegicus, UniProt Q01827); experiment: [3H]5-HT release from rat brain synaptic vesicles via VMAT2; type: biochemical; details: for Concentration at which [3H]5-HT release exceeds Emax of 30%: rat brain synaptic vesicles; for [3H]5-HT Release % Emax via VMAT2: rat brain vesicular fraction, 5-HT control set as Emax = 100%; for Emax: read-out: [3H]5-HT Release % Emax via VMAT2
VMAT2, sequence (Q01827 whole entry): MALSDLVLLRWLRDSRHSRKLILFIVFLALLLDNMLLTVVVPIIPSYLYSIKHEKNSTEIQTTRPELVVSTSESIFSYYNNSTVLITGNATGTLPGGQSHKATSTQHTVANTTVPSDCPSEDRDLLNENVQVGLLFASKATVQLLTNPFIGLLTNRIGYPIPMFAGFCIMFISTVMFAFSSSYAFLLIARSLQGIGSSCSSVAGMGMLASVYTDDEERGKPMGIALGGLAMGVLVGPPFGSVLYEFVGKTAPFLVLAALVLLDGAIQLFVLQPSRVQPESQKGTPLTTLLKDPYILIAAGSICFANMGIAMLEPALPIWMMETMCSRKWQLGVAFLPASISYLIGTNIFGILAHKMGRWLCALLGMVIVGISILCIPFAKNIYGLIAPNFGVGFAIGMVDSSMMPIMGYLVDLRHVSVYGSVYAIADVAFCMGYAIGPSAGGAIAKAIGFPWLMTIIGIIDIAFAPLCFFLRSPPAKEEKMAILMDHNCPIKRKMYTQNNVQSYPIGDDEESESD

rat SERT (rSERT) = rat SERT (rSERT) (Rattus norvegicus, UniProt P31652); experiment: [3H]5-HT uptake inhibition in rat brain synaptosomes; type: biochemical; details: for IC50: rat brain synaptosomes
rat SERT (rSERT), sequence (P31652 whole entry): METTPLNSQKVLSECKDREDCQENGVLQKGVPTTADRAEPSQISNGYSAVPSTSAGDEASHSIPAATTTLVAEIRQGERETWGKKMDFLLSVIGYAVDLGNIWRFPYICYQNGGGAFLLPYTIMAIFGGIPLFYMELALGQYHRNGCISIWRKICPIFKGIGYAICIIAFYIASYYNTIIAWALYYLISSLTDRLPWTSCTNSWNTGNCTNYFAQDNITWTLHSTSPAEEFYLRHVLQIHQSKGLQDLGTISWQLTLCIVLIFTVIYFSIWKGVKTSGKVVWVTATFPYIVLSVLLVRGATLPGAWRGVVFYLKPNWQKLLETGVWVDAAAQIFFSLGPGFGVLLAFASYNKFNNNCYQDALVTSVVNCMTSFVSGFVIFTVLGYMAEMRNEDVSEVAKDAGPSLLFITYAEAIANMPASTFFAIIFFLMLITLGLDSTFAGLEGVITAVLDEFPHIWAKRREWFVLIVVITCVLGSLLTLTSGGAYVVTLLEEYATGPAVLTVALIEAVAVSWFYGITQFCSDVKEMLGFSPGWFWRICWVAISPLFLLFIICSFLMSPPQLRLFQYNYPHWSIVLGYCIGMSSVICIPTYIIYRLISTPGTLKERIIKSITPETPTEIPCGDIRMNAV

SERT [1] = target: SERT (Mus musculus, UniProt Q60857); experiment: SERTlight two-photon imaging of SERT function in acute mouse brain slices; type: cell-based
SERT (Mus musculus, UniProt Q60857), sequence (Q60857 whole entry): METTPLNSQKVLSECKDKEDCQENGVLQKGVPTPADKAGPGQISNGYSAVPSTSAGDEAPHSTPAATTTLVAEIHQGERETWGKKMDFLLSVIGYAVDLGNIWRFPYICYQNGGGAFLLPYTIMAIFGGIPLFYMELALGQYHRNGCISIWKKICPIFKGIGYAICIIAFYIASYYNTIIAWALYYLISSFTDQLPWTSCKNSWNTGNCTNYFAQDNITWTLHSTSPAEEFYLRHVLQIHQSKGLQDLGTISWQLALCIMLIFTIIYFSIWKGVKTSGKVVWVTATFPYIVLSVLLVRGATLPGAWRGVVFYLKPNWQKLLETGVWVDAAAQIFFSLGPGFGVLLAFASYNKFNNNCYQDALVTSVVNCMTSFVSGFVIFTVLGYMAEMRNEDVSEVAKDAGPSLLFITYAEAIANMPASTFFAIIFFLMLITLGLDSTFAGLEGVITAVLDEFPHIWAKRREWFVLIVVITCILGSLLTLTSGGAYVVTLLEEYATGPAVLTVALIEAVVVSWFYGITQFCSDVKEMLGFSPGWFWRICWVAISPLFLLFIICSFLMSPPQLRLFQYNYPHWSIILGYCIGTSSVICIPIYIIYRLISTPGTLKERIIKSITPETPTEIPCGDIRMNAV

rat VMAT2 (rVMAT2) = rat VMAT2 (rVMAT2) (Rattus norvegicus, UniProt Q01827); experiment: [3H]5-HT uptake inhibition in rat brain synaptic vesicular fraction; type: biochemical
rat VMAT2 (rVMAT2), sequence (Q01827 whole entry): as the sequence (Q01827 whole entry) above

hSERT = hSERT (Homo sapiens, UniProt P31645); type: cell-based; details: for IC50: read-out: IC50, hSERT (uptake inhibition, APP+), hSERT-HEK cells, fluorescent substrate APP+, n = 4
hSERT, sequence (P31645 whole entry): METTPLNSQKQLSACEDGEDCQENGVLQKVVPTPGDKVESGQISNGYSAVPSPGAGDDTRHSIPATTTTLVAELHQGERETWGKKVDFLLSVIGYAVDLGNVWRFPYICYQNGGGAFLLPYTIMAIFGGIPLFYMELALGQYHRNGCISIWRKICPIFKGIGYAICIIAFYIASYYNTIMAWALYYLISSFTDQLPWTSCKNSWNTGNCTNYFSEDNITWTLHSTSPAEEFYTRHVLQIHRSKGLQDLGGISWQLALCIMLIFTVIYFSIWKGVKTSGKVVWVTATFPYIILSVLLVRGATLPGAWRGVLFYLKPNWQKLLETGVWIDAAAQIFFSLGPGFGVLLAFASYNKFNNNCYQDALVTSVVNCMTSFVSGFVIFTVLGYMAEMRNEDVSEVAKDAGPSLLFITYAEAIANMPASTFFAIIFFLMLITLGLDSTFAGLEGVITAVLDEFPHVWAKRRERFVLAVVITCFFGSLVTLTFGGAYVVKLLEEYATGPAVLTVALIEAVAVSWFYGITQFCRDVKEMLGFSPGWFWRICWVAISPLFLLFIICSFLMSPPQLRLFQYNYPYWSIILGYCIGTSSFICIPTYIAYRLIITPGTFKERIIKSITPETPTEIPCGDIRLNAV

SERT [2] = target: SERT (Rattus norvegicus, UniProt P31652); experiment: [3H]5-HT release from rat brain synaptosomes via SERT; type: biochemical; details: for Emax: read-out: [3H]5-HT Release % Emax via SERT
SERT (Rattus norvegicus, UniProt P31652), sequence (P31652 whole entry): as the sequence (P31652 whole entry) above

hVMAT2 = hVMAT2 (Homo sapiens, UniProt Q05940); experiment: FFN206 fluorescent substrate uptake inhibition in hVMAT2-HEK cells; type: cell-based
hVMAT2, sequence (Q05940 whole entry): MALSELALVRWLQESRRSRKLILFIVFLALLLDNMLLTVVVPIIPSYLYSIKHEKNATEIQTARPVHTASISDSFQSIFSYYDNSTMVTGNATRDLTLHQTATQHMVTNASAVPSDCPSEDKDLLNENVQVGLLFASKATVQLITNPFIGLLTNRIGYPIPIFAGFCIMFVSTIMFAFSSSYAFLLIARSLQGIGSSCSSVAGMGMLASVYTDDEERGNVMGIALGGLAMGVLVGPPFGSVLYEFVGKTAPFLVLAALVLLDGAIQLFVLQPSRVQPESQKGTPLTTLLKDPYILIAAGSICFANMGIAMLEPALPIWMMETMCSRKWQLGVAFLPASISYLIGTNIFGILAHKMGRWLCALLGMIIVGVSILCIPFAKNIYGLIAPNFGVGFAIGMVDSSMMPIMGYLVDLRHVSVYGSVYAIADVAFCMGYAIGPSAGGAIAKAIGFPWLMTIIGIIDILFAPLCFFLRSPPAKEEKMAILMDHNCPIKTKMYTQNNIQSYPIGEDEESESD

mice [3] = experiment: Catalepsy bar test in mice; type: in vivo, mouse
[4] = Pharmacokinetics in mice, estimated free drug concentration in brain; type: in vivo, mouse; details: mice, 50 mg/kg, s.c.
mice [5] = experiment: Open field locomotor activity test in mice; type: in vivo, mouse; details: s.c.; for Locomotor activity / sedation in open field test: dose-response
hOCT2 = target: T1, hOCT2 (Homo sapiens, UniProt O15244); experiment: ASP+ fluorescent substrate uptake inhibition at OCT2; type: cell-based
T1 sequence (O15244 1-555): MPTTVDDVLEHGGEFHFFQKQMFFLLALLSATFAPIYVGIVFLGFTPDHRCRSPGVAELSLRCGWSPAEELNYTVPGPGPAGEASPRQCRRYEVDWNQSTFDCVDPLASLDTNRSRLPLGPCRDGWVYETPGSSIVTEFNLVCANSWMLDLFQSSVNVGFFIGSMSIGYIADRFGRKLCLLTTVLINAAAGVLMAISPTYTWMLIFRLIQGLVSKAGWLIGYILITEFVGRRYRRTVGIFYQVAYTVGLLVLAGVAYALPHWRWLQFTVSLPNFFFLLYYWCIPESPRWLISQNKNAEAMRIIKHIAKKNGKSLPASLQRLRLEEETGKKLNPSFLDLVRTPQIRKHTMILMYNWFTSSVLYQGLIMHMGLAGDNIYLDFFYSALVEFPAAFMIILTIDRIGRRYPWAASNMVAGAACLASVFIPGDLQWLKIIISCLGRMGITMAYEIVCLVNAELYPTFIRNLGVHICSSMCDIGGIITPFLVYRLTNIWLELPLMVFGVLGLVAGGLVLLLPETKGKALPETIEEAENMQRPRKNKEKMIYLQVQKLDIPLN

NET = details: read-out: EC50, NET (release); synaptosomes; cited from earlier work
humans = details: therapeutic doses, treated for dyskinesias; cited from earlier work
[6] = read-out: Uptake Inhibition at SERT IC50, [3H]5-HT (rSERT)
[7] = read-out: [3H]5-HT Uptake Inhibition IC50 ± SD, SERT, n = 3
[8] = read-out: Uptake Inhibition at VMAT2 IC50, [3H]5-HT (rVMAT2), rat brain synaptic vesicles
[9] = rat brain synaptosomes, n = 3, active releaser: EC50 < 10 μM and Emax > 30%
[10] = read-out: IC50, hVMAT2 (uptake inhibition, FFN206), hVMAT2-HEK cells, fluorescent substrate FFN206, n = 4
[11] = read-out: [3H]5-HT Release EC50 ± SD via VMAT2

mouse VMAT2 (mVMAT2), sequence (Q8BRU6 whole entry): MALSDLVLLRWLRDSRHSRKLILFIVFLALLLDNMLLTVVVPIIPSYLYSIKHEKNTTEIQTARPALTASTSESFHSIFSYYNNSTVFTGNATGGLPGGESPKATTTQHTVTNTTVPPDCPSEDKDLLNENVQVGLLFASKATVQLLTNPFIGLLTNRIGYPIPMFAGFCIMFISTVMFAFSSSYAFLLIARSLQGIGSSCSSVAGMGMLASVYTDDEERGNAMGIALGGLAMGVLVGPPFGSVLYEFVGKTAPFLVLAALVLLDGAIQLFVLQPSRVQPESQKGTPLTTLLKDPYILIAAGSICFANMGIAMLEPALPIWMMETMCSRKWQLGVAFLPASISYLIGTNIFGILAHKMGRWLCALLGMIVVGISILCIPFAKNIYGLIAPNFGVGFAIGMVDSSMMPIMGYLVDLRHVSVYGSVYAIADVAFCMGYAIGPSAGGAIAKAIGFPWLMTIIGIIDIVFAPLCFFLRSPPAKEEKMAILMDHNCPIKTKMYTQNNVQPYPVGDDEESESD

CC[C@H]1C[C@@H]2C[C@H]3c4[nH]c5ccc(C#N)cc5c4CCN(C2)[C@@H]13 [5-cyano-ibogamine]
Effect on FFN200 uptake / punctate labeling (mouse VMAT2 (mVMAT2)): no inhibitory effects; also recorded: had no effect on labeling pattern | Concentration at which [3H]5-HT release exceeds Emax of 30% (VMAT2): > 10 µM | [3H]5-HT Release % Emax via VMAT2 (VMAT2): < 30% | IC50 (rat SERT (rSERT); [6]): 65 nM | IC50 (rat SERT (rSERT); [7]): 65.2 ± 5.4 nM | Effect on SERTlight labeling of 5-HT axons (SERT [1]; 0.2 μM (200 nM), dorsal striatum): Marked labeling inhibition; also recorded: marked suppression of SERTlight fluorescent labeling | Effect on SERTlight labeling of 5-HT axons (SERT [1]; 2 μM for 30 minutes, SERTlight 10 μM, SNpr, DS, SSp2/3): ablated SERTlight probe uptake; also recorded: fully inhibited SERTlight label | IC50 (rat VMAT2 (rVMAT2); [8]): 9620 nM | IC50 (hSERT): 26 nM | [3H]5-HT Release % Emax via SERT (SERT [2]; rat brain synaptosomes, n = 3): < 30% | [3H]5-HT Release EC50 ± SD via SERT (SERT [2]; [9]): inactive | IC50 (hVMAT2; [10]): 3340 nM

CCOc1ccc2[nH]c3c(c2c1)CCN1CC2CC(CC)C1C3C2 (stereo not shown) [5-ethoxyibogamine]
IC50 (hSERT): 9030 nM | Selectivity hVMAT2 over hSERT (hVMAT2; ratio of IC50 values, cell-based fluorometry): more than 100 fold | IC50 (hVMAT2; [10]): 80 nM

COc1cc2c(cc1OC)[C@H]1C[C@@H](O)[C@H](CC(C)C)CN1CC2 [DTBZ, dihydrotetrabenazine, reference compound]
Effect on FFN200 uptake / punctate labeling (mouse VMAT2 (mVMAT2)): attenuated; also recorded: inhibited the labeling pattern

CCC1CC2CC3c4c(c5cc(O)ccc5n4CC)CCN(C2)C13 (stereo not shown) [N-ethyl-noribogaine]
Catalepsy in bar test (mice [3]; mice, 50 mg/kg, s.c., 60-minute mark): catalepsy was induced | Catalepsy in bar test (mice [3]; mice, s.c., dose-response): induces catalepsy | Catalepsy in bar test (mice [3]; mouse, in vivo): lack of catalepsy; also recorded: did not induce catalepsy | [3H]5-HT Release % Emax via VMAT2 (VMAT2): 31% | EC50 (VMAT2; [11]): 711 ± 254 nM | Potency in synaptosomes ([3H]5-HT, rSERT) relative to transfected cells (hSERT) (rat SERT (rSERT)): more than 20 fold | IC50 (rat SERT (rSERT); [6]): 80 nM | IC50 (rat SERT (rSERT); [7]): 80.1 ± 7.2 nM | IC50 (rat VMAT2 (rVMAT2); [8]): 54 nM | IC50 (hSERT): 1860 nM | Cmax, estimated free drug in the brain [4]: 11 µM | [3H]5-HT Release % Emax via SERT (SERT [2]; rat brain synaptosomes, n = 3): < 30% | [3H]5-HT Release EC50 ± SD via SERT (SERT [2]; [9]): inactive | Locomotion in open field test (mice [5]; 30 mg/kg): completely suppressed locomotion | Locomotor activity / sedation in open field test (mice [5]): suppresses locomotor activity | IC50 (hVMAT2; [10]): 70 nM

CC[C@H]1C[C@@H]2C[C@H]3c4c(c5cc(OC)ccc5n4C)CCN(C2)[C@@H]13 [N-methyl-ibogaine]
IC50 (hOCT2; read-out: IC50, hOCT2, ASP+ fluorescent substrate): 2300 nM

CCC1CC2CC3c4c(c5cc(O)ccc5n4C)CCN(C2)C13 (stereo not shown) [N-methyl-noribogaine]
[3H]5-HT Release % Emax via VMAT2 (VMAT2): 32% | EC50 (VMAT2; [11]): 219 ± 36 nM | IC50 (rat SERT (rSERT); [6]): 14 nM | IC50 (rat SERT (rSERT); [7]): 13.6 ± 1.2 nM | IC50 (rat VMAT2 (rVMAT2); [8]): 239 nM | IC50 (hSERT): 59 nM | [3H]5-HT Release % Emax via SERT (SERT [2]; rat brain synaptosomes, n = 3): < 30% | [3H]5-HT Release EC50 ± SD via SERT (SERT [2]; [9]): inactive | IC50 (hVMAT2; [10]): 170 nM

CC(N)Cc1ccccc1 (stereo not shown) [amphetamine, reference compound]
Emax (VMAT2): 98% | [3H]5-HT release from preloaded synaptosomes (qualitative) (SERT [2]; rat brain synaptosomes): robust [^3H]5-HT release | Emax (SERT [2]): 91%

CC[C@H]1C[C@@H]2C[C@H]3c4[nH]c5ccccc5c4CCN(C2)[C@@H]13 [ibogamine]
[3H]5-HT Release EC50 ± SD via VMAT2 (VMAT2): inactive | Concentration at which [3H]5-HT release exceeds Emax of 30% (VMAT2): > 10 µM | Emax (VMAT2): < 30% | IC50 (hOCT2): 2000 nM | IC50 (rat SERT (rSERT); Uptake Inhibition at SERT IC50, [3H]5-HT (rSERT)): 554 nM | IC50 (rat SERT (rSERT); [3H]5-HT Uptake Inhibition IC50 ± SD, SERT, n = 3): 554 ± 49 nM | IC50 (rat VMAT2 (rVMAT2)): > 10000 nM | [3H]5-HT Release EC50 ± SD via SERT (SERT [2]): inactive | [3H]5-HT release from preloaded synaptosomes (qualitative) (SERT [2]; rat brain synaptosomes): No [^3H]5-HT release was observed | Emax (SERT [2]): < 30% | IC50 (hVMAT2): 3010 nM

CN(C)CCCN1c2ccccc2CCc2ccccc21 [imipramine, reference compound]
Selectivity for SERT over VMAT2 (hSERT): > 100 fold

CCC1CC2CC3c4oc5ccc(O)cc5c4CCN(C2)C13 (stereo not shown) [oxa-noribogaine]
IC50 (hSERT): 900 nM | IC50 (hVMAT2; [10]): 670 nM

COC(=O)[C@H]1[C@H]2C[C@@H]3c4[nH]c5cc(OC)ccc5c4CCN3C[C@H]2C[C@@H](OC(=O)c2cc(OC)c(OC)c(OC)c2)[C@@H]1OC [reserpine, reference compound]
Emax (VMAT2): < 30%

NCCc1c[nH]c2ccc(O)cc12 [serotonin (5-HT), serotonin, reference compound]
EC50 (VMAT2): 585 ± 129 nM | Emax (VMAT2): 113%

COc1cc2c(cc1OC)C1CC(=O)C(CC(C)C)CN1CC2 (stereo not shown) [tetrabenazine (TBZ), tetrabenazine, reference compound]
Catalepsy in bar test (mice [3]; mice, s.c., dose-response): catalepsy in the bar test in a dose-dependent manner; also recorded: catalepsy can be readily induced | Parkinsonism as an adverse effect, share of subjects (humans): 15–24% | Emax (VMAT2): < 30% | Locomotor activity / sedation in open field test (mice [5]): diminished locomotor activity; also recorded: sedation in the open field test

N-methyl-5-cyano-ibogamine
Concentration at which [3H]5-HT release exceeds Emax of 30% (VMAT2): > 10 µM | [3H]5-HT Release % Emax via VMAT2 (VMAT2): < 30% | IC50 (rat SERT (rSERT); [6]): 10 nM | IC50 (rat SERT (rSERT); [7]): 9.8 ± 0.8 nM | IC50 (rat VMAT2 (rVMAT2); [8]): 1320 nM | IC50 (hSERT): 5 nM | [3H]5-HT Release % Emax via SERT (SERT [2]; rat brain synaptosomes, n = 3): < 30% | [3H]5-HT Release EC50 ± SD via SERT (SERT [2]; [9]): inactive | IC50 (hVMAT2; [10]): 440 nM
